Measurements taken from publication PMC12479633, “A Phase IIa, Single-Blind, Placebo-Controlled, Parallel-Group Study to Assess Safety, Tolerability, and Pharmacokinetics/Pharmacodynamics of Brensocatib in Adults with Cystic Fibrosis” (Clinical Pharmacokinetics, 2025).

Tests used:
[1] = set-up: method as in PMID 35411669, PMID 29484635; conditions: cited from earlier work
proteinase 3 (PR3) [2] = assay: Active PR3 in blood (white blood cell pellets) of adults with CF; assay type: in vivo, human; conditions: for PR3, median % reduction relative to baseline: Blood, day 29
Protocol: (§1) Blood PD samples were collected at screening; predose on days 1, 2, 14, 28, and 29; and at the follow-up visit (day 35). The samples were analyzed at an external service provider to determine the concentrations of active NE, PR3, and CatG in white blood cell pellets using validated enzymatic methods with quantification limits of 87.9 ng/mL for NE and PR3 and 70.3 ng/mL for CatG. The fit-for-purpose methods details were published internally and stored within Insmed’s document repository.
(§2) If a participant experienced an intercurrent event, defined as use of antibiotics during an acute event that could influence NSP levels, the data were not included in the PD analysis. In assessing treatment-emergent adverse events (TEAEs), the “while-on-treatment” strategy was implemented, which encompassed the 28-day period following the final dose of study drug. With this strategy, data collected prior to the occurrence of the intercurrent event, that is, to discontinuation of brensocatib, were included in the analysis.

neutrophil elastase (NE) [3] = assay: NE activity in sputum of adults with CF; assay type: in vivo, human
From the text: as §2
(§3) On the basis of the comparability of PK between participants with and without concomitant use of CFTR modulators, NSP activity (NE, CatG, PR3) in blood and sputum was analyzed using the combined data sets without the CFTR modulator stratum.

CYP3A = test system: CYP3A; set-up: method as in PMID 35411669; conditions: cited from earlier work
proteinase 3 (PR3) [4] = assay: PR3 activity in sputum of adults with CF; assay type: in vivo, human
From the text: as §2, §3

cathepsin G (CatG) = assay: CatG activity in sputum of adults with CF; assay type: in vivo, human
From the text: as §2, §3

neutrophil elastase (NE) [5] = assay: Active NE in blood (white blood cell pellets) of adults with CF; assay type: in vivo, human; conditions: for NE, median % reduction relative to baseline: Blood, day 29
Protocol: as §1, §2

[6] = over the dose range of 10–40 mg QD

For `Cn1c(=O)oc2ccc(-c3ccc(C[C@@H](C#N)NC(=O)[C@@H]4CNCCCO4)cc3)cc21` [Brensocatib], the urinary excretion ([1]; at steady state) is given as “approximately 20%”, the elimination half-life ([1]; single doses of 5–120 mg and QD dosing at 10–40 mg) is given as 20 to 30 h and the steady state accumulation ([1]; single or multiple dosing) is given as “approximately twofold”. For the same compound, the “PR3, median % reduction relative to baseline” value (proteinase 3 (PR3) [2]; 10 mg QD, n = 6) was 17.3 (n = 6) %, the “PR3, median % reduction relative to baseline” value (proteinase 3 (PR3) [2]; 25 mg QD, n = 7) was 40.8 (n = 7) % and the “PR3, median % reduction relative to baseline” value (proteinase 3 (PR3) [2]; 40 mg QD, n = 7) was 55.0 (n = 7) %. The “median percent reduction of PR3 activity in blood” value (proteinase 3 (PR3) [2]; [6]) was 17–55%, the “NE, median % reduction relative to baseline” value (neutrophil elastase (NE) [3]; 10 mg QD, day 29, n = 5) was 40.7 (n = 5) % and the “NE, median % reduction relative to baseline” value (neutrophil elastase (NE) [3]; 25 mg QD, day 29, n = 3) was 77.8 (n = 3) %. For the same compound, the “NE, median % reduction relative to baseline” value (neutrophil elastase (NE) [3]; 40 mg QD, day 29, n = 2) was 69.9 (n = 2) %, the substrate status (CYP3A; CYP3A) was “substrate” and the “inhibition or induction of CYP3A” value (CYP3A) was “not a clinically meaningful inhibitor or inducer”. For the same compound, the “PR3, median % reduction relative to baseline” value (proteinase 3 (PR3) [4]; 10 mg QD, day 29, n = 5) was 59.1 (n = 5) %, the “PR3, median % reduction relative to baseline” value (proteinase 3 (PR3) [4]; 25 mg QD, day 29, n = 3) was 67.1 (n = 3) % and the “PR3, median % reduction relative to baseline” value (proteinase 3 (PR3) [4]; 40 mg QD, day 29, n = 1) was −17.0 (n = 1) %. The “CatG, median % reduction relative to baseline” value (cathepsin G (CatG); 10 mg QD, day 29, n = 5) was 51.3 (n = 5) %, the “CatG, median % reduction relative to baseline” value (cathepsin G (CatG); 25 mg QD, day 29, n = 3) was 0 (n = 3) % and the “CatG, median % reduction relative to baseline” value (cathepsin G (CatG); 40 mg QD, day 29, n = 2) was 0 (n = 2) %. For the same compound, the “NE, median % reduction relative to baseline” value (neutrophil elastase (NE) [5]; 10 mg QD, n = 6) was 35.3 (n = 6) %, the “NE, median % reduction relative to baseline” value (neutrophil elastase (NE) [5]; 25 mg QD, n = 7) was 56.4 (n = 7) % and the “NE, median % reduction relative to baseline” value (neutrophil elastase (NE) [5]; 40 mg QD, n = 7) was 74.0 (n = 7) %. For the same compound, the “median percent reduction of NE activity in blood” value (neutrophil elastase (NE) [5]; [6]) was 35–74%.
